Laboratory results: patent US7557133B2, “Caspase inhibitors containing isoxazoline ring” (LG Life Sciences Ltd., priority 2003, dated 2009)

Columns and labels:
[1] = system: Jurkat cell (ATCC TIB-152); experiment: Jurkat cell apoptosis by Fas antibody, WST-1 method; format: cell-based; conditions: apoptosis using Fas antibody, WST-1; for IC50: Homo sapiens, Jurkat
Method: The […] inhibitory activity of the inhibitors was determined by subjecting Jurkat cell (ATCC TIB-152) to apoptosis using Fas antibody (Upstate Biotech 05-201) and by detecting the color change according to the WST-1 method known in Francoeur A. M. and Assalian A. (1996) Biochemica 3, 19-25 to observe the amount of alive Jurkat cells when the cells were treated by the inhibitor. Spectra MAX 340 Spectrometer of Molecular Device Co. was used at the absorbance wavelength of 440 nm.

caspase-8 = molecular target: T1, caspase-8 (Homo sapiens, UniProt Q14790); experiment: Caspase-8 inhibitory effect (fluorescent substrate AcDEVD-AFC); format: biochemical; conditions: 25° C., 50 μM AcDEVD-AFC, 2.1 nM caspase-8; for kinact/KI: pH 7.5, read-out: Caspase-8 Kobs/[I] (converted)
T1 construct: p10 and p20 subunits (Thornberry, N. A. et al, Nature, 1992, 356, 768) were expressed in E. coli; made in house; host or cells: E. coli
Method: Caspase-1 and caspase-8 known as cysteine proteases in the form of α2β2 were expressed, purified, and activated by modifying a method known in Thornberry, N. A. et al, Nature, 1992, 356, 768. Thornberry, N. A. Methods in Enzymology, 1994, 244, 615. Walker, N. P. C. et al. Cell, 1994, 78, 343, and caspase-9 was also purified by a similar method, and the inhibitory activity against them was tested. Briefly describing, p10 and p20 subunits (Thornberry, N. A. et al, Nature, 1992, 356, 768) were expressed in E. coli and purified by nickel column and anionic exchange chromatography to give caspase-1, caspase-8 and caspase-9. The fluorescent substrate AcYVAD-AFC for thus obtained caspase-1, AcDEVD-AFC for caspase-8, and AcLEHD-AFC for caspase-9 were used for determining specific activity of the synthesized inhibitors. The enzyme reaction was carried out at 25° C. with various concentrations of the inhibitors in a buffer solution containing 50 mM HEPES(pH 7.50), 10% (w/v) sucrose, 0.1% (w/v) CHAPS, 100 mM NaCl, 1 mM EDTA, and 10 mM DTT in the presence of 50 μM AcYVAD-AFC for 10 nM caspase-1, 50 μM AcDEVD-AFC for 2.1 nM caspase-8, and 150 μM AcLEHD-AFC for 200 nM caspase-9. The inhibitory constants Ki and Kobs of the inhibitors were determined by measuring the reaction velocity with the time lapse using a fluorescent spectrometer and by obtaining the initial rate constant. Ki was calculated from the Lineweaver Burk Plot, and Kobs from the following Equation 1. Kobs=−ln(1−At/Aoo)/t Equation 1
At means cleavate rate (%) at time t, and
Aoo means the maximum cleavage rate (%).
Spectra MAX GeminiXS Fluorescent Spectrometer of Molecular Device Co. was used at the excitation wavelength of 405 nm and the emission wavelength of […].

T1 sequence (Q14790 217-374 limits assumed, species assumed): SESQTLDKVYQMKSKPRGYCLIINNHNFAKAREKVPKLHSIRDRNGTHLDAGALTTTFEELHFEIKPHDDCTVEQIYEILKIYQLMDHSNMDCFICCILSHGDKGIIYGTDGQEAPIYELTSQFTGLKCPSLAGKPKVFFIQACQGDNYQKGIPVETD
T1 sequence (Q14790 385-479 limits assumed, species assumed): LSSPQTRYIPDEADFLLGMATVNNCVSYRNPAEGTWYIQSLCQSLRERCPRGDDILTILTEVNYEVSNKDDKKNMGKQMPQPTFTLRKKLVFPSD

SMILES | IC50 [1] [nM] | kinact/KI (caspase-8) [M⁻¹ s⁻¹] | Jurkat cell IC50 [1] | Caspase-8 Kobs/[I] (caspase-8)
CCC1(C(=O)NC(CC(=O)O)C(=O)CF)CC(c2ccccc2C(C)C)=NO1 (centres unmarked) [Iaa1, 3-({[5-Ethyl-3-(2-isopropylphenyl)-4,5-dihydro-5-isoxazolyl]carbonyl}amino)-5-fluoro-4-oxopentanoic acid] | 330 | 3000 | – | –
CCC1(C(=O)NC(CC(=O)O)C(=O)CF)CC(c2cccc(C(C)(C)C)c2)=NO1 (centres unmarked) [Iaa2, 3-[({3-[3-(tert-Butyl)phenyl]-5-ethyl-4,5-dihydro-5-isoxazolyl}carbonyl)amino]-5-fluoro-4-oxopentanoic acid] | 560 | 5330 | – | –
CCC1(C(=O)NC(CC(=O)O)C(=O)CF)CC(c2ccc(C(C)(C)C)cc2)=NO1 (centres unmarked) [Iaa3, 3-[({3-[4-(tert-Butyl)phenyl]-5-ethyl-4,5-dihydro-5-isoxazolyl}carbonyl)amino]-5-fluoro-4-oxopentanoic acid] | 2650 | 2330 | – | –
CC(C)[C@@]1(C(=O)NC(CC(=O)O)C(=O)CF)CC(c2cccc(C(C)(C)C)c2)=NO1 (stereo partly drawn) [Iaa5, 3-[({(5R)-3-[3-(tert-butyl)phenyl]-5-isopropyl-4,5-dihydro-5-isoxazolyl}carbonyl)amino]-5-fluoro-4-oxopentanoic acid] | 300 | 5000 | – | –
CCC1(C(=O)NC(CC(=O)O)C(=O)CF)CC(c2cc(C(C)(C)C)ccn2)=NO1 (centres unmarked) [Iaa8, 3-[({3-[4-(tert-Butyl)-2-pyridinyl]-5-ethyl-4,5-dihydro-5-isoxazolyl}carbonyl)amino]-5-fluoro-4-oxopentanoic Acid] | 700 | 7500 | – | –
CC(C)[C@@]1(C(=O)NC(CC(=O)O)C(=O)CF)CC(c2cc(C(C)(C)C)ccn2)=NO1 (stereo partly drawn) [Iaa9, 3-[({(5R)-3-[4-(tert-butyl)-2-pyridinyl]-5-isopropyl-4,5-dihydro-5-isoxazolyl}carbonyl)amino]-5-fluoro-4-oxopentanoic acid] | 1240 | 3830 | – | –
CCC1(C(=O)NC(CC(=O)O)C(=O)CF)CC(c2cc(CC(C)C)ccn2)=NO1 (centres unmarked) [Iaa10, 3-({[5-Ethyl-3-(4-isobutyl-2-pyridinyl)-4,5-dihydro-5-isoxazolyl]carbonyl}amino)-5-fluoro-4-oxopentanoic acid] | 1020 | 2500 | – | –
CCC1(C(=O)NC(CC(=O)O)C(=O)CF)CC(c2cc(C(C)=O)ccn2)=NO1 (centres unmarked) [Iaa11, 3-({[3-(4-Acetyl-2-pyridinyl)-5-ethyl-4,5-dihydro-5-isoxazolyl]carbonyl}amino)-5-fluoro-4-oxopentanoic acid] | 31000 | 1070 | – | –
CCC1(C(=O)NC(CC(=O)O)C(=O)CF)CC(c2cc(C3CC3)ccn2)=NO1 (centres unmarked) [Iaa12, 3-({[3-(4-Cyclopropyl-2-pyridinyl)-5-ethyl-4,5-dihydro-5-isoxazolyl]carbonyl}amino)-5-fluoro-4-oxopentanoic acid] | 700 | 3170 | – | –
CCC1(C(=O)NC(CC(=O)O)C(=O)CF)CC(c2cc(C3CCCC3)ccn2)=NO1 (centres unmarked) [Iaa13, 3-({[3-(4-Cyclopentyl-2-pyridinyl)-5-ethyl-4,5-dihydro-5-isoxazolyl]carbonyl}amino)-5-fluoro-4-oxopentanoic Acid] | 350 | 5170 | – | –
CC(C)[C@@]1(C(=O)NC(CC(=O)O)C(=O)CF)CC(c2cc(C3CCCC3)ccn2)=NO1 (stereo partly drawn) [Iaa14, 3-({[(5R)-3-(4-cyclopentyl-2-pyridinyl)-5-isopropyl-4,5-dihydro-5-isoxazolyl]carbonyl}amino)-5-fluoro-4-oxopentanoic Acid] | 790 | 6830 | – | –
CCC1(C(=O)NC(CC(=O)O)C(=O)CF)CC(c2cc(C3CCCCC3)ccn2)=NO1 (centres unmarked) [Iaa15, 3-({[3-(4-Cyclohexyl-2-pyridinyl)-5-ethyl-4,5-dihydro-5-isoxazolyl]carbonyl}amino)-5-fluoro-4-oxopentanoic Acid] | 720 | 7170 | – | –
CCC1(C(=O)NC(CC(=O)O)C(=O)CF)CC(c2nccc3c2CCCC3)=NO1 (centres unmarked) [Iaa16, 3-({[5-Ethyl-3-(5,6,7,8-tetrahydro-1-isoquinolinyl)-4,5-dihydro-5-isoxazolyl]carbonyl}amino)-5-fluoro-4-oxopentanoic acid] | 730 | 10300 | – | –
CC(C)C1(C(=O)NC(CC(=O)O)C(=O)CF)CC(c2cc(-c3ccccc3)ccn2)=NO1 (centres unmarked) [Iaa17, 5-Fluoro-3-({[5-isopropyl-3-(4-phenyl-2-pyridinyl)-4,5-dihydro-5-isoxazolyl]carbonyl}amino)-4-oxopentanoic Acid] | 1140 | 3000 | – | –
CCC1(C(=O)N[C@@H](CC(=O)O)C(=O)COc2ccccn2)CC(c2ccccc2C(C)C)=NO1 (stereo partly drawn) [Iaa24, (3S)-3-({[5-ethyl-3-(2-isopropylphenyl)-4,5-dihydro-5-isoxazolyl]carbonyl}amino)-4-oxo-5-(2-pyridinyloxy)pentanoic Acid] | – | – | – | No Activity
CC(C)[C@@]1(C(=O)N[C@@H](CC(=O)O)C(=O)CF)CC(c2nccc3ccccc23)=NO1 [Iii-1, (3S)-5-fluoro-3-({[(5R)-5-isopropyl-3-(1-isoquinolinyl)-4,5-dihydro-5-isoxazolyl]carbonyl}amino)-4-oxopentanoic acid] | – | 383000 | – | –
CC(C)[C@@]1(C(=O)N[C@H](CC(=O)O)C(=O)CF)CC(c2nccc3ccccc23)=NO1 [Iii-2, (3R)-5-fluoro-3-({[(5R)-5-isopropyl-3-(1-isoquinolinyl)-4,5-dihydro-5-isoxazolyl]carbonyl}amino)-4-oxopentanoic acid] | – | 7830 | – | –

Other lines, results leading:

IC50 [1] [nM] | kinact/KI (caspase-8) [M⁻¹ s⁻¹] | Jurkat cell IC50 [1] | Caspase-8 Kobs/[I] (caspase-8) | SMILES
670 | 8330 | – | – | CC(C)c1ccccc1C1=NO[C@@](C(=O)NC(CC(=O)O)C(=O)CF)(C(C)C)C1 (stereo partly drawn) [Iaa4, 5-Fluoro-3-({[(5R)-5-isopropyl-3-(2-isopropylphenyl)-4,5-dihydro-5-isoxazolyl]carbonyl}amino)-4-oxopentanoic Acid]
2450 | 3330 | – | – | CC(C)C1(C(=O)NC(CC(=O)O)C(=O)CF)CC(c2cccc(-c3ccccc3)c2)=NO1 (centres unmarked) [Iaa6, 3-{[(3-[1,1′-biphenyl]-3-yl-5-isopropyl-4,5-dihydro-5-isoxazolyl)carbonyl]amino}-5-fluoro-4-oxopentanoic acid]
2270 | 733 | – | – | CCC1(C(=O)NC(CC(=O)O)C(=O)CF)CC(c2ccccn2)=NO1 (centres unmarked) [Iaa7, 3-({[5-Ethyl-3-(2-pyridinyl)-4,5-dihydro-5-isoxazolyl]carbonyl}amino)-5-fluoro-4-oxopentanoic Acid]
1500 | 8670 | – | – | CC(C)[C@@]1(C(=O)N[C@@H](CC(=O)O)C(=O)COP(=O)(c2ccccc2)c2ccccc2)CC(c2nccc3ccccc23)=NO1 [Iaa18, (3S)-5-[(diphenylphosphoryl)oxy]-3-({[(5R)-5-isopropyl-3-(1-isoquinolinyl)-4,5-dihydro-5-isoxazolyl]carbonyl}amino)-4-oxopentanoic acid]
– | 267 | No Activity | – | CC(C)[C@@]1(C(=O)N[C@@H](CC(=O)O)C(=O)COc2cc(C(F)(F)F)nn2-c2ccccc2)CC(c2nccc3ccccc23)=NO1 [Iaa19, (3S)-3-({[(5R)-5-isopropyl-3-(1-isoquinolinyl)-4,5-dihydro-5-isoxazolyl]carbonyl}amino)-4-oxo-5-{[1-phenyl-3-(trifluoromethyl)-1H-pyrazol-5-yl]oxy}pentanoic acid]
– | – | – | No Activity | C=CC(=O)[C@H](CC(=O)O)NC(=O)[C@]1(C(C)C)CC(c2nccc3ccccc23)=NO1 [Iaa22, (3S)-3-({[(5R)-5-isopropyl-3-(1-isoquinolinyl)-4,5-dihydro-5-isoxazolyl]carbonyl}amino)-4-oxo-5-hexenoic acid]
– | – | No Activity | – | CCOC(=O)/C=C/[C@H](CC(=O)O)NC(=O)[C@]1(C(C)C)CC(c2nccc3ccccc23)=NO1 [Irr, (3S,4E)-6-ethoxy-3-({[(5R)-5-isopropyl-3-(1-isoquinolinyl)-4,5-dihydro-5-isoxazolyl]carbonyl}amino)-6-oxo-4-hexenoic Acid]
– | – | No Activity | – | CC(C)[C@@]1(C(=O)N[C@H](/C=C/S(C)(=O)=O)CC(=O)O)CC(c2nccc3ccccc23)=NO1 [Iss, (3S,4E)-3-({[(5R)-5-isopropyl-3-(1-isoquinolinyl)-4,5-dihydro-5-isoxazolyl]carbonyl}amino)-5-(methylsulfonyl)-4-pentenoic acid]
